Data taken from ChEMBL document CHEMBL1201862, “PubChem BioAssay data set” (2004).
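Compound exposure: 48 hours, 5 concentrations, 96-well plates. Here, GI50 denotes the concentration required for 50% inhibition of growth.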 Activity calls are given as the source filed them. No stated cut-off is given here; in the data, active = GI50 up to about 1.1 µM and inactive = higher.

Columns and labels:
Assay in all cases: NCI tumour cell line growth inhibition, 48 h
786-0 = test system: 786-0
COLO 205 = test system: COLO 205
EKVX = test system: EKVX
HCC 2998 = test system: HCC 2998
HCT-116 = test system: HCT-116
Hs-578T = test system: Hs-578T
K562 = test system: K562
KM12 = test system: KM12
MCF7 = test system: MCF7
MOLT-4 = test system: MOLT-4
NCI-H23 = test system: NCI-H23
SF-295 = test system: SF-295
SF-539 = test system: SF-539
SK-MEL-28 = test system: SK-MEL-28
SN12C = test system: SN12C
SNB-75 = test system: SNB-75
UACC-257 = test system: UACC-257
UACC-62 = test system: UACC-62
UO-31 = test system: UO-31

Row | SMILES | GI50 (786-0) | GI50 (COLO 205) | GI50 (EKVX) | GI50 (HCC 2998) | GI50 (HCT-116) | GI50 (Hs-578T) | GI50 (K562) | GI50 (KM12) | GI50 (MCF7) | GI50 (MOLT-4) | GI50 (NCI-H23) | GI50 (SF-295) | GI50 (SF-539) | GI50 (SK-MEL-28) | GI50 (SN12C) | GI50 (SNB-75) | GI50 (UACC-257) | GI50 (UACC-62) | GI50 (UO-31)
1 | O=C(O)c1cccc(/[As]=[As]\c2cccc(C(=O)O)c2)c1 (centres undefined) | 24.8 µM (inactive) | 33 µM (inactive) | 59.8 µM (inactive) | 57.7 µM (inactive) | 36.9 µM (inactive) | 33.8 µM (inactive) | 34.7 µM (inactive) | > 100 µM (inactive) | 32.9 µM (inactive) | 30.3 µM (inactive) | 31 µM (inactive) | > 100 µM (inactive) | 16.6 µM (inactive) | > 100 µM (inactive) | 38.2 µM (inactive) | 21.5 µM (inactive) | 40.9 µM (inactive) | 33.3 µM (inactive) | 38.2 µM (inactive)
2 | O=C(Nc1ccccc1C(=O)NCc1ccccc1)/C(=C/c1ccccc1O)NC(=O)c1ccccc1 | 66.4 µM (inactive) | > 100 µM (inactive) | > 100 µM (inactive) | > 100 µM (inactive) | > 100 µM (inactive) | 69 µM (inactive) | > 100 µM (inactive) | 4.67 µM (inactive) | 5.32 µM (inactive) | > 100 µM (inactive) | > 100 µM (inactive) | 49.9 µM (inactive) | > 100 µM (inactive) | > 100 µM (inactive) | > 100 µM (inactive) | 19.1 µM (inactive) | > 100 µM (inactive) | 33.7 µM (inactive) | 65.6 µM (inactive)
3 | COc1ccc2nc3ccc(OC)cc3c(SCCO)c2c1 | 14.4 µM (inactive) | 23.6 µM (inactive) | 31.7 µM (inactive) | > 75 µM (inactive) | 15.8 µM (inactive) | 15.4 µM (inactive) | 9.91 µM (inactive) | 22.5 µM (inactive) | 6.01 µM (inactive) | 3.03 µM (inactive) | 16.2 µM (inactive) | 49.2 µM (inactive) | 20.7 µM (inactive) | 55.8 µM (inactive) | 26.4 µM (inactive) | 28.6 µM (inactive) | 32.7 µM (inactive) | 38.5 µM (inactive) | 29.3 µM (inactive)
4 | O=C(c1ccccc1)c1ccc(N2C(=O)/C(=C/Cc3ccco3)N=C2c2ccccc2)c(N2C(=O)/C(=C/Cc3ccco3)N=C2c2ccccc2)c1 | 45.7 µM (inactive) | 38.6 µM (inactive) | 81.5 µM (inactive) | 36.9 µM (inactive) | 40.2 µM (inactive) | 25.8 µM (inactive) | 64.7 µM (inactive) | 28.4 µM (inactive) | 52 µM (inactive) | 18.8 µM (inactive) | – | 30 µM (inactive) | 16.2 µM (inactive) | > 100 µM (inactive) | 71.6 µM (inactive) | 28.1 µM (inactive) | 47.1 µM (inactive) | 26.5 µM (inactive) | 39 µM (inactive)
5 | CC[N+]1(C)CCC(O)(/C=C/c2ccc(Cl)c(Cl)c2)C(C(=O)/C=C/c2ccc(Cl)c(Cl)c2)C1 (centres undefined) | 1.81 µM (inactive) | 2.65 µM (inactive) | 11.1 µM (inactive) | 1.95 µM (inactive) | 1.57 µM (inactive) | 2.91 µM (inactive) | 1.55 µM (inactive) | 1.88 µM (inactive) | 2.36 µM (inactive) | 2.28 µM (inactive) | 2.57 µM (inactive) | 4.14 µM (inactive) | 3.03 µM (inactive) | 2.15 µM (inactive) | 1.88 µM (inactive) | 3.78 µM (inactive) | 2.38 µM (inactive) | 1.74 µM (inactive) | 1.83 µM (inactive)
6 | O=C(NNC(=S)Nc1ccc(Br)cc1)c1cc(-c2ccccc2)nc2ccccc12 | 19 µM (inactive) | 22.6 µM (inactive) | – | 16.8 µM (inactive) | 16.7 µM (inactive) | 30.2 µM (inactive) | 25.2 µM (inactive) | 29.9 µM (inactive) | 18.4 µM (inactive) | 22.1 µM (inactive) | 23.6 µM (inactive) | 19.2 µM (inactive) | 16.6 µM (inactive) | 21.1 µM (inactive) | 19.1 µM (inactive) | 29.2 µM (inactive) | 23.2 µM (inactive) | 20 µM (inactive) | 17.1 µM (inactive)
7 | COc1ccc(C(=O)Sc2c(-c3ccccc3)c(=O)n(-c3ccccc3)c(=S)n2-c2ccccc2)cc1 | 33.7 µM (inactive) | 39.7 µM (inactive) | > 100 µM (inactive) | > 100 µM (inactive) | 29.7 µM (inactive) | > 100 µM (inactive) | 37.1 µM (inactive) | > 100 µM (inactive) | > 100 µM (inactive) | 21.6 µM (inactive) | > 100 µM (inactive) | > 100 µM (inactive) | 14.2 µM (inactive) | 81.5 µM (inactive) | 41.7 µM (inactive) | > 100 µM (inactive) | > 100 µM (inactive) | > 100 µM (inactive) | –
8 | OC1CSCCCSCCSCCCSC1 | > 100 µM (inactive) | > 100 µM (inactive) | > 100 µM (inactive) | > 100 µM (inactive) | > 100 µM (inactive) | > 100 µM (inactive) | > 100 µM (inactive) | – | > 100 µM (inactive) | 12.1 µM (inactive) | > 100 µM (inactive) | > 100 µM (inactive) | > 100 µM (inactive) | > 100 µM (inactive) | > 100 µM (inactive) | > 100 µM (inactive) | > 100 µM (inactive) | > 100 µM (inactive) | > 100 µM (inactive)
9 | CC1=C2C(=O)c3ccccc3C(=O)[C@H]2C[C@@H](N2CCCC2=O)O1 | 25.2 µM (inactive) | 79.1 µM (inactive) | 76.4 µM (inactive) | > 100 µM (inactive) | – | 94.8 µM (inactive) | 49.8 µM (inactive) | 77.6 µM (inactive) | 12.9 µM (inactive) | 32.1 µM (inactive) | 21.9 µM (inactive) | 66.8 µM (inactive) | 25.5 µM (inactive) | 54.7 µM (inactive) | 53.2 µM (inactive) | 15.3 µM (inactive) | 65.6 µM (inactive) | 33 µM (inactive) | > 100 µM (inactive)
10 | CCOc1ccc(/N=N/c2ccc3cc(/C(C)=N/NC(=O)/C(C#N)=C\c4ccc(N(CCC#N)CCC#N)cc4)c(=O)oc3c2)cc1 | > 10 µM (inactive) | > 10 µM (inactive) | > 10 µM (inactive) | > 10 µM (inactive) | > 10 µM (inactive) | > 10 µM (inactive) | > 10 µM (inactive) | > 10 µM (inactive) | > 10 µM (inactive) | > 10 µM (inactive) | > 10 µM (inactive) | > 10 µM (inactive) | > 10 µM (inactive) | > 10 µM (inactive) | > 10 µM (inactive) | 1.86 µM (inactive) | > 10 µM (inactive) | > 10 µM (inactive) | > 10 µM (inactive)
11 | COC(=O)c1c2c(cc3c1CC1(C3)Cc3ccc4c(c3C1=O)CCC4)CCC2 (centres undefined) | 3.51 µM (inactive) | 2.37 µM (inactive) | 8.17 µM (inactive) | 6.52 µM (inactive) | 3.01 µM (inactive) | 1.91 µM (inactive) | 2.2 µM (inactive) | 2.64 µM (inactive) | 2.45 µM (inactive) | 4.41 µM (inactive) | 3.74 µM (inactive) | 2.12 µM (inactive) | 2.38 µM (inactive) | 6.67 µM (inactive) | 4.2 µM (inactive) | 4.33 µM (inactive) | 5.04 µM (inactive) | 2.26 µM (inactive) | 3.05 µM (inactive)
12 | C[C@@H]1CC(=O)[C@@]2(C)[C@](O)(CCC3O[C@]32C)[C@@]12CC(c1ccoc1)OC2=O (some centres undefined) | 75.7 µM (inactive) | 65 µM (inactive) | > 100 µM (inactive) | > 100 µM (inactive) | 34.5 µM (inactive) | 33.8 µM (inactive) | 39.1 µM (inactive) | > 100 µM (inactive) | 84.5 µM (inactive) | 23 µM (inactive) | > 100 µM (inactive) | > 100 µM (inactive) | > 100 µM (inactive) | > 100 µM (inactive) | – | 23.7 µM (inactive) | > 100 µM (inactive) | 56.9 µM (inactive) | > 100 µM (inactive)
13 | CC1=C[C@@H](C)C[C@]2(C)CC[C@H](O2)[C@]23CC[C@](C(=O)O)(C[C@H](O2)[C@@H]2O[C@@](C)(CC2=O)[C@@H](O)[C@H]2CC[C@@]4(CCC[C@@H](O4)[C@H](C)C(=O)O[C@H]4C[C@H]([C@]5(O)OCC[C@H](C)[C@@H]5O)O[C@H]4C=C1)O2)O3 | > 10 µM (inactive) | > 8.55 µM (inactive) | > 10 µM (inactive) | > 10 µM (inactive) | > 10 µM (inactive) | > 3.78 µM (inactive) | > 10 µM (inactive) | > 10 µM (inactive) | > 10 µM (inactive) | > 10 µM (inactive) | > 10 µM (inactive) | > 5.86 µM (inactive) | > 5.82 µM (inactive) | > 10 µM (inactive) | > 8.55 µM (inactive) | 3.5 µM (inactive) | > 10 µM (inactive) | > 9.02 µM (inactive) | > 10 µM (inactive)
14 | Cc1ccc2c(O)cc(-c3cccc4ccccc34)nc2n1 | 0.0349 µM (active) | 0.022 µM (active) | 0.0338 µM (active) | 0.0294 µM (active) | < 0.0151 µM (active) | 0.043 µM (active) | < 0.01 µM (active) | 0.0241 µM (active) | 0.0256 µM (active) | 0.0698 µM (active) | 0.0352 µM (active) | 0.0193 µM (active) | 0.0216 µM (active) | 0.016 µM (active) | 0.181 µM (active) | 0.0116 µM (active) | – | 0.01 µM (active) | 0.189 µM (active)
